This is an account of results in ChEMBL document CHEMBL4402516, “5-Lipoxygenase as a drug target: A review on trends in inhibitors structural design, SAR and mechanism based approach” (Bioorg Med Chem, 2019).

The term IC50 denotes the concentration that gives 50% inhibition. A word on the inhibition: it is the drop in the measured response relative to a control, in per cent. By IC80 is commonly meant the concentration needed for an effect of 80%. A higher IC80 goes with weaker potency.

Experiment [1] deals with T1, Polyunsaturated fatty acid 5-lipoxygenase (Homo sapiens, UniProt P09917).
T1 sequence (P09917 whole entry): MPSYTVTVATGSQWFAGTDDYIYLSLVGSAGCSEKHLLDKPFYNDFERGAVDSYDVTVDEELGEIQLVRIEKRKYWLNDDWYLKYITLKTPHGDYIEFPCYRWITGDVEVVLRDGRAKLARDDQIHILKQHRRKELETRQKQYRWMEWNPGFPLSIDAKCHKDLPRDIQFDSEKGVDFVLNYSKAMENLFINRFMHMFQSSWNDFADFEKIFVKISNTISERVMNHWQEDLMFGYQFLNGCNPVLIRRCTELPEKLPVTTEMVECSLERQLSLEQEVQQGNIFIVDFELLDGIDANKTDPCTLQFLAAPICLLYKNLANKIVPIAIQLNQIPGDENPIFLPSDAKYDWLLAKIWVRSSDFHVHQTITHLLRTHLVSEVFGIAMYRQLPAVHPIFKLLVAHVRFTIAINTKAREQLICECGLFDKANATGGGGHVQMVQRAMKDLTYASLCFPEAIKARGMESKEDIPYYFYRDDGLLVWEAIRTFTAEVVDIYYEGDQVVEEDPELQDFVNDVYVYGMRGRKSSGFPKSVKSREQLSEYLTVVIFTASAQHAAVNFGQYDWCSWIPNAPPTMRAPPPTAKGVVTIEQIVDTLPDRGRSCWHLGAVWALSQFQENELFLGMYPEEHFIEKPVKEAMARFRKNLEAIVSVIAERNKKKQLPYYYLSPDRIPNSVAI
Kind of experiment: Inhibition of human PMNL 5-LOX using arachidonic acid as substrate after 5 mins by HPLC method.

Experiment [2] addresses T1, Polyunsaturated fatty acid 5-lipoxygenase. In words: Competitive inhibition of recombinant human 5-LOX expressed in Escherichia coli BL21 cells using Arachidonic acid as substrate by UV absorbance.
The target of experiment [3] is T2, Polyunsaturated fatty acid 5-lipoxygenase (Rattus norvegicus, UniProt P12527).
T2 sequence (P12527 whole entry): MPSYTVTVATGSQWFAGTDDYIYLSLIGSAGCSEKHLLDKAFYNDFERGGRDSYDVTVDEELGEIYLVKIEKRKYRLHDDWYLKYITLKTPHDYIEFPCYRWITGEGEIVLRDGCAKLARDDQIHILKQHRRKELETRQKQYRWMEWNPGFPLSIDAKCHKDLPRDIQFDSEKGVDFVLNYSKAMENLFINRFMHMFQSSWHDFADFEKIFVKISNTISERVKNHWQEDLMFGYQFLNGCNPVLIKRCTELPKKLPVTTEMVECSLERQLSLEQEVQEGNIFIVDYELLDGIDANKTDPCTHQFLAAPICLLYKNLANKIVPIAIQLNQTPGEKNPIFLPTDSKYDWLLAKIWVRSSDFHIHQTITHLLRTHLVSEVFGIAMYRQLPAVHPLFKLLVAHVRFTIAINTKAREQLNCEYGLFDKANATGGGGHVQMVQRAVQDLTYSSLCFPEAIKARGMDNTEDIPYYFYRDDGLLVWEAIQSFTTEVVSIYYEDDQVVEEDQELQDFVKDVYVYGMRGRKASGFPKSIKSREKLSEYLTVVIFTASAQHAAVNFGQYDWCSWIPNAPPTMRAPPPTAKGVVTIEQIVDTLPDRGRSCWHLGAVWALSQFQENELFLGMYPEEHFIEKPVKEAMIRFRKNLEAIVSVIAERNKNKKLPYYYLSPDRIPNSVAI
In words: Inhibition of rat 5-LOX expressed in insect sf21 cells preincubated for 4 mins followed by Arachidonic acid addition and measured after 4 mins by FOX assay.

Experiment [4] addresses T1, Polyunsaturated fatty acid 5-lipoxygenase. Kind of experiment: Inhibition of 5-LOX (unknown origin) after 5 mins by colorimetric method.
Experiment [5] addresses Prostaglandin E synthase/G/H synthase 2 (Homo sapiens) (UniProt P35354+O14684). In words: Inhibition of COX2/mPGES1 in TNFalpha-induced human HeLa cells assessed as reduction in PGE2 production at 50 uM incubated for 3 hrs by EIA relative to control. Format: cell-based.
In experiment [6] the target is T3, Polyunsaturated fatty acid 5-lipoxygenase (Homo sapiens) (UniProt P09917).
T3 sequence (whole entry): T1 sequence (P09917 whole entry)
In words: Inhibition of recombinant human 5-LOX expressed in Escherichia coli BL21 cells at 50 uM using arachidonic acid as substrate by UV-vis spectrophotometry relative to control.

In experiment [7] the target is T1, Polyunsaturated fatty acid 5-lipoxygenase. In words: Inhibition of recombinant human 5-LOX expressed in Escherichia coli BL21 (DE3) cells preincubated for 10 mins followed by arachidonic acid addition and measured after 10 mins by RP-HPLC method.
Experiment [8] can be described thus: Inhibition of soybean 15-LOX by spectrophotometric method. Further details: species or system Glycine max.
The target of experiment [9] is T3, Polyunsaturated fatty acid 5-lipoxygenase (Homo sapiens). Kind of experiment: Inhibition of 5-LOX in human whole blood preincubated for 10 mins followed by Arachidonic acid and ATP addition and measured after 20 mins by H2DCFD dye based fluorescence method. The experiment is classed as tissue-based.
The target in experiment [10] is T1, Polyunsaturated fatty acid 5-lipoxygenase. In words: Inhibition of recombinant human 5-LOX expressed in baculovirus-infected insect cells preincubated for 10 mins followed by Arachidonic acid and ATP addition and measured after 20 mins by H2DCFD dye based fluorescence method.
Experiment [11] shares this target. In words: Inhibition of human leukocyte 5-LOX using arachidonic acid as substrate by UV/Vis spectrophotometry.
For experiment [12], the target named is T4, Polyunsaturated fatty acid 5-lipoxygenase (Rattus norvegicus) (UniProt P12527).
T4 sequence (whole entry): T2 sequence (P12527 whole entry)
In words: Inhibition of rat 5-LOX expressed in insect sf21 cells at 1 uM preincubated for 4 mins followed by Arachidonic acid addition and measured after 4 mins by FOX assay relative to control.

Experiment [13] concerns the target T4, Polyunsaturated fatty acid 5-lipoxygenase (Rattus norvegicus). Kind of experiment: Inhibition of 5-LOX in rat RBL-1 cells assessed as reduction in LTB4 secretion at 1 uM preincubated for 10 mins followed by A23187 stimulation and measured after 15 mins by EIA. Format: cell-based.
Experiment [14] can be described thus: Inhibition of potato 5-LOX using linoleic acid as substrate measured at 2 min by UV absorbance method. Further details: species or system Solanum tuberosum.
The next experiment relates to Glycine max. In words: Inhibition of soybean 5-LOX at 100 uM incubated for 10 mins relative to control.
The subject of the next experiment is MCF7. In words: Antiproliferative activity against human MCF7 cells by MTT assay. The experiment is classed as functional, cell-based. A general note: Tetrazolium assays rely on reduction of a dye to a coloured formazan, in cell work by metabolically active cells.
Experiment [15] concerns the target T1, Polyunsaturated fatty acid 5-lipoxygenase. In words: Inhibition of 5-LOX in A23187-stimulated human neutrophils preincubated for 15 mins followed by A23187 stimulation and measured after 10 mins.

Chain of Prostaglandin E synthase/G/H synthase 2 (Homo sapiens) (O14684 whole entry, looked up): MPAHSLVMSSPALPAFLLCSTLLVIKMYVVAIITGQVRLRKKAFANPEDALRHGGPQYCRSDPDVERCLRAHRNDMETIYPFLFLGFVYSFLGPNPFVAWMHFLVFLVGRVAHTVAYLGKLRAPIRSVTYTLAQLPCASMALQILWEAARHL
Chain of Prostaglandin E synthase/G/H synthase 2 (Homo sapiens) (P35354 whole entry, looked up): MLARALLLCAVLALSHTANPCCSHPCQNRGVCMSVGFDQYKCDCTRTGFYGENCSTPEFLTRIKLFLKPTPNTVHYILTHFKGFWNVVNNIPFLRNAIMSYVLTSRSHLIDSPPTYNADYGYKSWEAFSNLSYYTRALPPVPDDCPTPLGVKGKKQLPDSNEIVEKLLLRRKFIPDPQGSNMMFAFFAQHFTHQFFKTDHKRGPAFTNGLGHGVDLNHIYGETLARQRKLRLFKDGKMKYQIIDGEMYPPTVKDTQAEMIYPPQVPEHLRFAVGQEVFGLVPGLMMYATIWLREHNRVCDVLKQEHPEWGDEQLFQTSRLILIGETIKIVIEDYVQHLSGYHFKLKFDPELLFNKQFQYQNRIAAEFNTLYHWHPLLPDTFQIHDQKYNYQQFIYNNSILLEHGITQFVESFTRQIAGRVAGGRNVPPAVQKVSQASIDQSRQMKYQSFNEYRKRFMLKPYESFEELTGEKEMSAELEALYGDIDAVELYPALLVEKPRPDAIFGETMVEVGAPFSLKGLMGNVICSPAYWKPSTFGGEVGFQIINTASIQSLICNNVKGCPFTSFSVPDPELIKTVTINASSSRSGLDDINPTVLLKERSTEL

In [1], `C=CCSCC=C` [DIALLYL SULFIDE] registered a half-maximal inhibitory concentration (IC50) of 83 µM.

In the case of `COc1cc(CNC(=O)CCCC/C=C/C(C)C)ccc1O` [CAPSAICIN], the IC50 in experiment [1] is 56 µM.

Take `Clc1ccc(-c2cc(-c3c[nH]c4ccccc34)cc(-c3ccc(Cl)cc3)n2)cc1`: the concentration for half-maximal inhibition (IC50) in experiment [2] came out at 10 µM.

In the case of `CC(C)=CCn1cc(/C=N/NC(N)=O)c2cc(Br)ccc21`, the midpoint of inhibition in experiment [3], the IC50, lay at 0.12 µM.

Consider `O=C/C=C/c1ccccc1`, for which half-maximal inhibition in [1] (IC50) required 35 µM.

Turning to `Cc1cc(Nc2ncc(-c3ccc(F)cc3)o2)cc(C)c1O`, inhibition in [4] was half-maximal at 48.3 µM (IC50).

In the case of `CS(=O)(=O)NC(Cc1cc(I)c(OCc2ccon2)c(I)c1)C(=O)O` (stereo unspecified), the values for the inhibition in [5] and in experiment [6] were 66% and 74%, respectively.

Regarding `O=C(NCCCCCCCCCNC(=O)c1cccc(O)c1O)c1cccc(O)c1O`, in experiment [7], the IC50 is 0.1 µM.

`CCCCCC(=O)c1c(O)cc(O)c(C/C=C(\C)CCC=C(C)C)c1O` displayed a half-inhibitory concentration (IC50) in [8] of 10.3 µM.

In turn, `Cn1nccc1-c1ccc(Sc2ccc(C3(C(N)=O)CCOCC3)cc2)cc1` came in with an IC80 in experiment [9] of 0.37 µM. For the same compound, the IC50 in experiment [10] is 0.229 µM.

`C=CCc1ccc(O)c(OC)c1` [EUGENOL] registered an IC50 in [1] of 26 µM.

As to `Cc1ccc(S(=O)(=O)n2c(C(=O)C(=O)N3CCCC3)cc3ccccc32)cc1`, in experiment [11], the IC50 amounted to 0.17 µM.

Take `O=C(/C=C/C=C/c1ccc2c(c1)OCO2)N1CCCCC1` [PIPERINE]: the IC50 in [1] came to 54 µM.

`COc1ccc(/C=C2\SC(c3ccc4ccccc4c3)=NC2=O)cc1`: the inhibition in experiment [12] was 96%; in [13], 98%.

The compound `O=C(c1[nH]nc2c1CSc1sc(Br)cc1-2)N1CCN(c2ccccc2F)CC1` came in with an IC50 in experiment [14] of 33.7 µM.

`NCCCC(=O)c1cc(=O)c2cc(F)ccc2o1`: the inhibition with Glycine max was found to be 68%. In the experiment on MCF7, the IC50 is 0.9 µM.

As to `Cc1cccc(OC(=O)c2cc([N+](=O)[O-])cc([N+](=O)[O-])c2)c1`, the IC50 in experiment [15] amounted to 0.9 µM.
